In the supplement of paper PMC10477900:

Key:
HCT116 [1] = settings: 72 h
Method: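 HCT116 control and MTA1-KO (CRISPR) HCT116 cells were seeded in 384-well plates (800 cells/well), treated 16 h later with 237 metabolism-related anticancer drugs at five doses (10 uM, 2 uM, 400 nM, 80 nM, 16 nM) for 72 h, two replicates; viability by CCK8. Values are % inhibition of viability relative to untreated cells, plus fitted IC50.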

HCT116 [2] = test: viability inhibition vs untreated; higher = more cytotoxic; settings: 72 h

| SMILES | IC50 (HCT116 [1]; genotype: MTA1-KO) | IC50 (HCT116 [1]; genotype: control) | viability inhibition (HCT116 [2]; genotype: MTA1-KO, 16 nM) | viability inhibition (HCT116 [2]; genotype: MTA1-KO, 80 nM) | viability inhibition (HCT116 [2]; genotype: MTA1-KO, 400 nM) | viability inhibition (HCT116 [2]; genotype: MTA1-KO, 2000 nM) | viability inhibition (HCT116 [2]; genotype: MTA1-KO, 10000 nM) | viability inhibition (HCT116 [2]; genotype: control, 16 nM) | viability inhibition (HCT116 [2]; genotype: control, 80 nM) | viability inhibition (HCT116 [2]; genotype: control, 400 nM) | viability inhibition (HCT116 [2]; genotype: control, 2000 nM) | viability inhibition (HCT116 [2]; genotype: control, 10000 nM) |
| --- | --- | --- | --- | --- | --- | --- | --- | --- | --- | --- | --- | --- |
| COc1cccc2cc(-c3nc(C4CCC(C(=O)O)CC4)n4ncnc(N)c34)[nH]c12 (stereo not drawn) [OSI027] | > 10 µM | > 10 µM | 12.5% | 9.23% | 10.1% | -2.44% | 2.62% | -12.5% | -20.5% | -21.1% | 13.8% | 42.3% |
| O=c1[nH]cc(F)c(=O)[nH]1 [Fluorouracil] | 6.47 µM | 3.81 µM | -23.1% | -26% | -27.2% | 1.88% | 53.9% | -8.89% | -1.82% | 8.13% | 22.2% | 83.9% |
| N#CC(C#N)=NNc1ccc(OC(F)(F)F)cc1 [FCCP] | 8.13 µM | 9.04 µM | -7.63% | 1.48% | -17.8% | -8.82% | 87.2% | -7.79% | -5.69% | -13.2% | -7.17% | 67% |
| Cc1ccc(Oc2nc3cc(-c4ccc(-c5ccccc5)cc4)c(Cl)cc3[nH]2)cc1C(=O)O [MK3903] | 5.67 µM | 7.34 µM | -12.7% | -22.9% | -10.6% | 0.304% | 68% | 11.1% | 8.79% | 24.8% | 19.4% | 59.8% |
| C#CCC(Cc1cnc2nc(N)nc(N)c2n1)c1ccc(C(=O)N[C@@H](CCC(=O)O)C(=O)O)cc1 (stereo partly drawn) [Pralatrexate] | 0.022 µM | < 0.016 µM | 37.5% | 71.4% | 71.7% | 75% | 77.3% | 52.4% | 77.9% | 78.8% | 80.6% | 79.1% |
| Cc1c(C(=O)N2CCOc3ccc(-c4ccc(N)nc4)cc3C2)ccc(S(C)(=O)=O)c1F [XL388] | 4.64 µM | > 10 µM | -7.29% | 5.97% | 0.224% | 19% | 74.8% | 0.193% | -2.53% | -7.3% | -11.7% | 47% |
| C[C@]12CC[C@H](O)C[C@H]1CC[C@@H]1[C@@H]2CC[C@]2(C)[C@@](O)(c3ccoc3)CC[C@]12O [Rostafuroxin] | > 10 µM | > 10 µM | 11.8% | 13.5% | 10% | 14.5% | 30.6% | -0.895% | 11.7% | 13.9% | 5.09% | 13% |
| NS(=O)(=O)Cc1noc2ccccc12 [Zonisamide] | > 10 µM | > 10 µM | 2.91% | -1.38% | -4.06% | -5.28% | -6.62% | -7.18% | -18.6% | 2.58% | 2.07% | 31.7% |
| COc1cc(/C=C/C(=O)CC(=O)/C=C/c2ccc(O)c(OC)c2)ccc1O [Curcumin] | 7.8 µM | 7.85 µM | -19.2% | -16.2% | -19.6% | -14.2% | 61.7% | -1.96% | 7.36% | -4.61% | 4.83% | 60.8% |
| CC1(C)CC[C@]2(C(=O)O)CC[C@]3(C)[C@H](C(=O)C=C4[C@@]5(C)C=C(C#N)C(=O)C(C)(C)[C@@H]5CC[C@]43C)[C@@H]2C1 [Bardoxolone] | 3.04 µM | 2.54 µM | 6.64% | -8.28% | -9% | 44.1% | 103% | -7.41% | -6.83% | -2.5% | 40.7% | 103% |
| NS(=O)(=O)c1cc2c(cc1C(F)(F)F)NC(Cc1ccccc1)NS2(=O)=O (stereo not drawn) [Bendroflumethiazide] | > 10 µM | > 10 µM | -4.82% | -2.33% | -5.2% | -12.6% | -13.6% | 0.542% | -1.18% | -14.6% | 4.49% | -9.53% |
| NNC(=O)c1ccncc1 [Isoniazid] | > 10 µM | > 10 µM | -5.84% | -18.3% | -14.4% | -18.3% | -0.042% | -10.3% | -11.9% | -11.5% | 1.11% | 38% |
| O=C(Nc1cccc(Nc2ncc(Br)c(NCCc3cnc[nH]3)n2)c1)N1CCCC1 [BX912] | 1.27 µM | 1.5 µM | -9.54% | 7.13% | 22.8% | 64.5% | 92.4% | -0.895% | -7.72% | 13.9% | 47.2% | 75.2% |
| CCCC(=O)O[C@]1(C(=O)CO)CC[C@H]2[C@@H]3CCC4=CC(=O)CC[C@]4(C)[C@H]3[C@@H](O)C[C@@]21C [Hydrocortisone butyrate] | > 10 µM | > 10 µM | -3.78% | -0.209% | -6.9% | -15.3% | 17.3% | -10.8% | -15% | -3.07% | -16.7% | 41.3% |
